Measured values from ChEMBL document CHEMBL1132910, “SAR of 4-hydroxypiperidine and hydroxyalkyl substituted heterocycles as novel p38 map kinase inhibitors” (Bioorg Med Chem Lett, 2000).

Assays:
Mus musculus [1] = test: (§1) Inhibition of LPS-induced TNF-alpha release in mice at 20 mg/kg; format: functional
[2] = target: Tyrosine-protein kinase ABL1 (Mus musculus, UniProt P00520); test: Inhibition of c-abl kinase
[3] = Cmax value at a oral dose of […] mg/kg; format: ADME, organism-based; conditions: in vivo, 20 mg/kg
[4] = target: Mitogen-activated protein kinase 1 (Mus musculus, UniProt P63085); test: Inhibition of ERK2 kinase
[5] = target: Mitogen-activated protein kinase 14 (Mus musculus, UniProt P47811); test: Inhibition of murine p38 alpha MAP kinase
[6] = target: Mitogen-activated protein kinase 11 (Homo sapiens, UniProt Q15759); test: Inhibition of human p38 beta MAP kinase
[7] = target: Epidermal growth factor receptor (Homo sapiens, UniProt P00533); test: Inhibition of EGFR kinase
[8] = Bioavailability; format: ADME, organism-based; conditions: eutheria, in vivo
[9] = target: Proto-oncogene tyrosine-protein kinase Src (Gallus gallus, UniProt P00523); test: Inhibition of c-src kinase
Mus musculus [10] = test: as §1; format: functional, organism-based; design: dose 20 mg/kg
Rattus norvegicus [11] = test: Effect on collagen induced arthritis in rats at 25 mg/kg peroral dose twice daily over 10 days; format: functional; conditions: route oral
[12] = target: Mitogen-activated protein kinase 9 (Homo sapiens, UniProt P45984); test: Inhibition of JNK2 kinase
Rattus norvegicus [13] = test: Effect on adjuvant induced arthritis in rats at 25 mg/kg peroral dose twice daily over 10 days; format: functional; conditions: 240 h, route oral
[14] = target: T1, Prostaglandin G/H synthase 1 (Ovis aries, UniProt P05979); test: Inhibition of Prostaglandin G/H synthase 1, COX-1
T1 sequence (P05979 whole entry): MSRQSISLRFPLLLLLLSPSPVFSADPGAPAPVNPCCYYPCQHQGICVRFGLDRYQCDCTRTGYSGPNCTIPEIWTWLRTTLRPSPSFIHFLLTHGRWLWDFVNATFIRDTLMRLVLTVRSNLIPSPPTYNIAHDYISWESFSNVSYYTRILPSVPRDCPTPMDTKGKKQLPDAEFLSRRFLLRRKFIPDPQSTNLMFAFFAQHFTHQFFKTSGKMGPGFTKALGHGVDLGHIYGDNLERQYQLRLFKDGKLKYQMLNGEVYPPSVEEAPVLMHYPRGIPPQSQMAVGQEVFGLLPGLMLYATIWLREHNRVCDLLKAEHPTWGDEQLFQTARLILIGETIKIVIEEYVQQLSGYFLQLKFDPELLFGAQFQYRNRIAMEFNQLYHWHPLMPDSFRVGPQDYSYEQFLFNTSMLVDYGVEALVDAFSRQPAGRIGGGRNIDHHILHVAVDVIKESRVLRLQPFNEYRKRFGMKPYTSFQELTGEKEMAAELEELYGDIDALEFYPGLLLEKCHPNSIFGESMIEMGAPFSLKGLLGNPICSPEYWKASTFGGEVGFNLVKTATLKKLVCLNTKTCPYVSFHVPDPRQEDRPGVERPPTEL

[15] = target: T2, Dual specificity mitogen-activated protein kinase kinase 6 (Homo sapiens, UniProt P52564); test: Inhibition of MKK6b kinase
T2 sequence (P52564 whole entry): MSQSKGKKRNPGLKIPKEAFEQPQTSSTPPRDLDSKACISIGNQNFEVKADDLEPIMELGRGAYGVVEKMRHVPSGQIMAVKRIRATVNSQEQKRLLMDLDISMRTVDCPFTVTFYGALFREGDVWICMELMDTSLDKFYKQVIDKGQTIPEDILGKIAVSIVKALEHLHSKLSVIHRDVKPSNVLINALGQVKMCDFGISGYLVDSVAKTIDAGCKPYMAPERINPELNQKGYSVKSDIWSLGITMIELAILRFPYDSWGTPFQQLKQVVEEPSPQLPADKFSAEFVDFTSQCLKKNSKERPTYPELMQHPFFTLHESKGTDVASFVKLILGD

[16] = target: T3, Mitogen-activated protein kinase 13 (Homo sapiens, UniProt O15264); test: Inhibition of human p38 delta MAP kinase
T3 sequence (O15264 whole entry): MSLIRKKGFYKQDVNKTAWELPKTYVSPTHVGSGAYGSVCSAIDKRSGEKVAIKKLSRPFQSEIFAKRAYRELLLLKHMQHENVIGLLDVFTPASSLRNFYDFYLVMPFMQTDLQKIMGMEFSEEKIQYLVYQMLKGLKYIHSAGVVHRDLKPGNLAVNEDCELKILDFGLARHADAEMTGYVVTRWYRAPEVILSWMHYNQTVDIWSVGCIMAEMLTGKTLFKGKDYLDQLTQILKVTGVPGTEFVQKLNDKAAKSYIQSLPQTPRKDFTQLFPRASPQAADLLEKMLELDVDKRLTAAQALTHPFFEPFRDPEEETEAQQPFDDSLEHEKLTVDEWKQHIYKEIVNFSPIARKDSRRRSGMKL

[17] = target: Mitogen-activated protein kinase 8 (Homo sapiens, UniProt P45983); test: Inhibition of JNK1 kinase
[18] = target: Protein kinase C alpha type (Bos taurus, UniProt P04409); test: Inhibition of PKCalpha kinase

Sequence of Mitogen-activated protein kinase 14 (P47811 whole entry): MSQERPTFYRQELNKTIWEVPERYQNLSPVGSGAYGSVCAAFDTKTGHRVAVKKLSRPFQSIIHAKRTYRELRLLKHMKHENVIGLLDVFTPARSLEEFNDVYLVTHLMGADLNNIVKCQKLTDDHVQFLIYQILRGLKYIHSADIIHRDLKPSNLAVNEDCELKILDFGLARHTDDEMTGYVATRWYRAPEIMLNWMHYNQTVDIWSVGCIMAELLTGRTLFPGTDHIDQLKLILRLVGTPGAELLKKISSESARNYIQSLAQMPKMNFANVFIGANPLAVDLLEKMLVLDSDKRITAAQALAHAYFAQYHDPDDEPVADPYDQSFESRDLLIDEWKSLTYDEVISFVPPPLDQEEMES
Sequence of Epidermal growth factor receptor (P00533 whole entry): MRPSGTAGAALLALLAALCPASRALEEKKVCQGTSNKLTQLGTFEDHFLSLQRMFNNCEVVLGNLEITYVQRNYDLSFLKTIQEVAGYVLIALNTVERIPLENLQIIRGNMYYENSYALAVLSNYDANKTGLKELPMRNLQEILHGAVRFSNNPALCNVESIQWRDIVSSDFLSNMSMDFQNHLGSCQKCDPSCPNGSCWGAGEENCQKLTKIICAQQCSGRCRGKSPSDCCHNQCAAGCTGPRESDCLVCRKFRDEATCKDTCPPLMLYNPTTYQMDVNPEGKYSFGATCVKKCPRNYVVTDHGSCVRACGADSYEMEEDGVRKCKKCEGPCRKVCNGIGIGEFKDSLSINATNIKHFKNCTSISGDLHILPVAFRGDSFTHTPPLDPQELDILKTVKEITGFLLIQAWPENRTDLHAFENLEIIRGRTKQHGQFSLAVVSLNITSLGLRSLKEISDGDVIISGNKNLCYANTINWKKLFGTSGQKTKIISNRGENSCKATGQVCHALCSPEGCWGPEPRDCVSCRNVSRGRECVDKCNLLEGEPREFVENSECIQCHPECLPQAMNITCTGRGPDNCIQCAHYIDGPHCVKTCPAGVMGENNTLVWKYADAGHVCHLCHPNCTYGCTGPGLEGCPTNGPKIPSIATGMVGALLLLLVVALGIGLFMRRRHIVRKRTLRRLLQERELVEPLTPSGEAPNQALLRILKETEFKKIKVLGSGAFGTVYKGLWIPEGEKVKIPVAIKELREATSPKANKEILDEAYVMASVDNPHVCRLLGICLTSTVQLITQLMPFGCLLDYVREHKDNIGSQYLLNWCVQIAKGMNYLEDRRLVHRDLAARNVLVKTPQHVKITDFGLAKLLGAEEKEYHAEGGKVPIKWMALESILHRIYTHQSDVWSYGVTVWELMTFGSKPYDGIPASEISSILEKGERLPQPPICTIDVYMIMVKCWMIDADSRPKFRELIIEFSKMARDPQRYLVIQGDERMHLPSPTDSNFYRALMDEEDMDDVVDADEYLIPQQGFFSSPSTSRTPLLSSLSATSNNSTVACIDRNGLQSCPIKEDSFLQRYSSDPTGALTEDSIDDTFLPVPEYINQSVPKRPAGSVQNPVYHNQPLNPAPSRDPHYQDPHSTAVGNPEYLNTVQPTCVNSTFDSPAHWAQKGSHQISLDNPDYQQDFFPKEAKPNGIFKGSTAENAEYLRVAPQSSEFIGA
Sequence of Mitogen-activated protein kinase 1 (P63085 whole entry): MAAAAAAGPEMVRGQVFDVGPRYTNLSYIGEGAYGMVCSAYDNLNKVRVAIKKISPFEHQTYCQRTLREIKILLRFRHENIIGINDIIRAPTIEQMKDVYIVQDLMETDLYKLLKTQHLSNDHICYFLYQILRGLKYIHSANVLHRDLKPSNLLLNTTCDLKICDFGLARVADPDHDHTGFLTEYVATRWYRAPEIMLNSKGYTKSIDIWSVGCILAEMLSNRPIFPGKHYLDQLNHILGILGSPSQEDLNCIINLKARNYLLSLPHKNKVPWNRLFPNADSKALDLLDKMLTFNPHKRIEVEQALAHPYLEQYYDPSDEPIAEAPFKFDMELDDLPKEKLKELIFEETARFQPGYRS
Sequence of Tyrosine-protein kinase ABL1 (P00520 whole entry): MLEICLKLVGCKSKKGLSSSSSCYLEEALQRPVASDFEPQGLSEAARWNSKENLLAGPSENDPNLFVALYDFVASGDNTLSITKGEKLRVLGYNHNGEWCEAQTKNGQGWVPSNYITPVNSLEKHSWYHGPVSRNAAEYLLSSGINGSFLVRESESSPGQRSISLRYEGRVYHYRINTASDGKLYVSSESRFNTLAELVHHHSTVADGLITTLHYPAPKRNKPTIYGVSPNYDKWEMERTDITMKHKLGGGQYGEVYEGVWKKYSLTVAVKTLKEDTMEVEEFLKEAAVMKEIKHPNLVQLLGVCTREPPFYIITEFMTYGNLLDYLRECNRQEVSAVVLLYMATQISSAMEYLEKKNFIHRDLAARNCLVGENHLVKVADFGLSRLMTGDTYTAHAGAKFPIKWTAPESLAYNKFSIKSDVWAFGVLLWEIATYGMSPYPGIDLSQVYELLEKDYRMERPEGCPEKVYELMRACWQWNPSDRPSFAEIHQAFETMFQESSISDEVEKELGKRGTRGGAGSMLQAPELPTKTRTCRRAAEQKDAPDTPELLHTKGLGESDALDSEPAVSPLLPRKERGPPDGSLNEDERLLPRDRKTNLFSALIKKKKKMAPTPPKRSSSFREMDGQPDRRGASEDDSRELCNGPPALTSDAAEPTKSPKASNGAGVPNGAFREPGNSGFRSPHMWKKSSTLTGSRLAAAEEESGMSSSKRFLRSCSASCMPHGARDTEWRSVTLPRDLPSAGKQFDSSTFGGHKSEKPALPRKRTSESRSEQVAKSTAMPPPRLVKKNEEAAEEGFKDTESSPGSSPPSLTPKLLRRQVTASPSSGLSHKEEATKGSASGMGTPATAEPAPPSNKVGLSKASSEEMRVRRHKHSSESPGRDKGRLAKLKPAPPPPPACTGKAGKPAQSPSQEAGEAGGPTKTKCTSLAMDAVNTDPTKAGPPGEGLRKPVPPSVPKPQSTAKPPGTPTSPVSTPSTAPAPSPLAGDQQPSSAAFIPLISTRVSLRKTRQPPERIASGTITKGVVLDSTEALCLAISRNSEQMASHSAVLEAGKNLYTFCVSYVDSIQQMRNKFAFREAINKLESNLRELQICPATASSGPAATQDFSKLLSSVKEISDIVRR
Sequence of Mitogen-activated protein kinase 8 (P45983 whole entry): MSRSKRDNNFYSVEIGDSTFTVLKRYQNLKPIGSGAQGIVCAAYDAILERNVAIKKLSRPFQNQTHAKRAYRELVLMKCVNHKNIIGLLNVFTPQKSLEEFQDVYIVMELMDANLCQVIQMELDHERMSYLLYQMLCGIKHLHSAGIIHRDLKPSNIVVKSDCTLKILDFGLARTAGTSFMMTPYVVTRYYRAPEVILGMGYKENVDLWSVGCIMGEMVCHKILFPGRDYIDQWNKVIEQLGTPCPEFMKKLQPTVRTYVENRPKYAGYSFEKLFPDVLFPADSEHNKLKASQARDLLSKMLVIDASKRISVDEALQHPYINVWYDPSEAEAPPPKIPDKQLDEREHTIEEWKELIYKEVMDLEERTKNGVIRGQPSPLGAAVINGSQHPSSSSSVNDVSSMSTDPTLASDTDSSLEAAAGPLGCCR
Sequence of Mitogen-activated protein kinase 9 (P45984 whole entry): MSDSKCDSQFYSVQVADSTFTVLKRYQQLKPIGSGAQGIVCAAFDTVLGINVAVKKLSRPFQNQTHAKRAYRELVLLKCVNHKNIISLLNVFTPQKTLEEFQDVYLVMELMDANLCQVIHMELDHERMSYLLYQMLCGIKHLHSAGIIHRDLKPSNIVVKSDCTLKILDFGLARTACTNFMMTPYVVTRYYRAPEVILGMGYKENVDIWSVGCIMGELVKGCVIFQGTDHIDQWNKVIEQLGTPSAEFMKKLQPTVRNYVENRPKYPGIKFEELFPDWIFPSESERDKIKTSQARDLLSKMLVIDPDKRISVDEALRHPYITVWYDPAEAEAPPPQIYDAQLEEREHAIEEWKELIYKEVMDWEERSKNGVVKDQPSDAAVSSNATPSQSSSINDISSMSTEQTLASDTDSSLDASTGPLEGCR
Sequence of Mitogen-activated protein kinase 11 (Q15759 whole entry): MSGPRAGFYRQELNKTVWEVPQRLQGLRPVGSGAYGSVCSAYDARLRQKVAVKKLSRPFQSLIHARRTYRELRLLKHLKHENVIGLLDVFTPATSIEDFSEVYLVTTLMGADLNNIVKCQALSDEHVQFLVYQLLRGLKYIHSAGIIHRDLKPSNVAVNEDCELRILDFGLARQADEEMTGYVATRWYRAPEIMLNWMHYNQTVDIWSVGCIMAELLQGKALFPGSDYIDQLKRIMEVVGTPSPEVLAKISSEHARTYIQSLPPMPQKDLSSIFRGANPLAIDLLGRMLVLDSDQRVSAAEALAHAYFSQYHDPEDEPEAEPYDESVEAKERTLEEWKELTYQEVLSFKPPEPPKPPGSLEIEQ

| IC50 [5] [nM] | IC50 [14] [nM] | SMILES | inhibition in vivo at 20 mg/kg (Mus musculus [1]) [%] | IC50 (Mus musculus [10]) [nM] | other results |
| --- | --- | --- | --- | --- | --- |
| 470 | 87000 | CC(C)(O)c1nc(-c2ccncc2)c(-c2ccc(F)cc2)[nH]1 |  |  |  |
| 130 | > 100000 | CN1CCC(O)(c2cc(-c3ccncc3)c(-c3ccc(F)cc3)[nH]2)CC1 | 18 | 125 |  |
| 80 | 3000 | OC1(c2nc(-c3ccncc3)c(-c3ccc(F)cc3)[nH]2)CCCC1 |  |  |  |
| 120 | 6300 | OC1(c2nc(-c3ccncc3)c(-c3ccc(F)cc3)[nH]2)CCCCC1 |  |  |  |
| 2000 |  | CN1CCC(O)(c2nc(-c3ccncc3)c(-c3ccc(F)cc3)o2)CC1 |  |  |  |
| 450 | 73000 | CN1CCC(O)(c2nc(-c3ccc(F)cc3)c(-c3ccncc3)s2)CC1 | 0 | 145 |  |
| 76 | 200 | OC1(c2nc(-c3ccncc3)c(-c3ccc(F)cc3)[nH]2)CCCCCC1 |  |  |  |
| 450 | 5000 | CC(C)(C)c1nc(-c2ccncc2)c(-c2ccccc2)[nH]1 |  |  |  |
| 150 | 20000 | OC1(c2nc(-c3ccncc3)c(-c3ccc(F)cc3)[nH]2)CCC1 |  |  |  |
| 20 | 40000 | OC1(c2nc(-c3ccncc3)c(-c3ccc(F)cc3)[nH]2)CC1 |  |  |  |

| SMILES | IC50 [5] [nM] | IC50 [14] [nM] | inhibition in vivo at 20 mg/kg (Mus musculus [1]) [%] | IC50 (Mus musculus [10]) [nM] | other results |
| --- | --- | --- | --- | --- | --- |
| CN1CCC(O)(c2nc(-c3ccc(F)cc3)c(-c3ccncc3)o2)CC1 | 350 | > 100000 | 50 | 180 | IC50 [2]: 86800 nM; Cmax [3]: 1960 nM; IC50 [4]: > 10000 nM; IC50 [6]: 2410 nM; IC50 [7]: 797 nM; bioavailability [8]: 65%; IC50 [9]: 22700 nM; ED50 (Rattus norvegicus [11]): 20 mg/kg/day; IC50 [12]: 8090 nM; inhibition in vivo at 25 mg/kg (Rattus norvegicus [13]): 40%; IC50 [15]: > 100000 nM; IC50 [16]: > 10000 nM; IC50 [17]: > 10000 nM; IC50 [18]: 51100 nM |
| CN1CCC(O)(c2nc(-c3ccc(F)cc3)c(-c3ccncc3)[nH]2)CC1 | 90 | > 100000 | 77 | 15 | Cmax [3]: 400 nM; bioavailability [8]: 23%; inhibition in vivo at 25 mg/kg (Rattus norvegicus [13]): 23% |
